Reference: EP4310093A1, “AMINO ACID DERIVATIVE, PREPARATION METHOD THEREFOR, AND PHARMACEUTICAL COMPOSITION FOR TREATING HEPATITIS, COMPRISING SAME” (priority 2021, dated 2022)

Experiments:
[1] = test system: Jurkat cell line; experiment: Cytotoxicity, WST-1 cell viability; type: cell-based, human; conditions: 0.2 µM ~ 50 µM, 24 and 48 hours
Procedure: For Example 1 (LCA-Ile), Example 44 (LCA-Val), Example 2 (UDCA-Ile), and Example 3 (UDCA-Val), cytotoxicity was evaluated in the Jurkat cell line, a human T lymphocyte-derived cell line. Jurkat cell lines were seeded at a density of 5 × 10^4 on a 96 well plate for overnight incubation, and each compound was treated at a concentration of 0.2 µM ~ 50 µM for 24 or 48 hours. WST-1, a reagent for measuring cell viability, was loaded at 10 µl/well, and absorbance was measured at 440 nm using a microplate reader 2 hours later. The mean value of negative control (NC) group treated with only DMSO was calculated as 1 and the cytotoxicity for the remaining experimental group was evaluated.

[2] = test system: HBV; experiment: Inhibition of intracellular HBV virus invasion, HBeAg ELISA analysis; type: cell-based; conditions: 20 µM, HepG2-NTCP cell line, HBV 3000 Geq/cell, O.D. at 450 nm
Procedure: (§1) In order to evaluate the ability to inhibit intracellular HBV virus entry (invasion), Enzyme-linked immunosorbent assay (ELISA) analysis to measure HBeAg, which is associated with high infectivity as an antigen in the HBV virus core portion, and Southern blot analysis to measure DNA of HBV were performed.
(§2) Specifically, the HepG2-NTCP cell line was cultured on a 6-well plate, incubation was performed overnight, HBV inhibitors were treated at a concentration of 20 µM, and the positive control Myrcludex-B (MyrB) was treated at a concentration of 200 nM, followed by culture for 24 hours. After HBV infection into the cells to make HBV 3000 genome equivalent per ml/cell (Geq/cell), the cell culture medium was replaced (medium changing, MC) a day after the viral infection to remove the virus unattached to cell membranes. In order to measure an amount of virus that entered the cell, medium changing (MC) was performed once more 4 days after viral infection. 2 days after replacement, HBeAg ELISA analysis was performed using a supernatant, and Southern blot analysis was performed with cell pellets.
HBeAg ELISA analysis was performed using an HBeAg ELISA kit (sanbio, Wantai HBeAg ELISA, cat#WB-2496) for the supernatant obtained by the method in Experimental Example 4-1.
First, a negative control group (Mock), positive control group (MyrB), and samples according to the present disclosure were loaded, by 50 µl each to be triplicate, onto a 96-well plate coated with capture Ab. In this case, Example 1 (LCA-ILE), Example 44 (LCA-Val), Example 52 (LCA-Tyr), Example 51 (LCA-Ser), Example 55 (LCA-Glu), Example 2 (UDCA-Ile), Example 3 (UDCA-Val), Example 25 (LCA-Val-Trp), Example 10 (DCA-Ile), Comparative Example 1 (LCA), and Comparative Example 2 (UDCA) were used as the sample.
The HRP-conjugated detection antibody was loaded into each well by 50 µl, followed by a reaction at 37°C for 30 minutes. Washing buffer (1X PBS, 0.5% Tween20) was added by 200 µl, and washing was performed 5 times. 50 µl of chromogen solution A and 50 µl of chromogen solution B were added to each well, and a reaction was carried out in the darkness at 37°C for 15 minutes. The stop solution was added to each well by 50 µl each to stop the reaction, and the amount of HBeAg was measured by measuring the absorbance (optical density, O.D.) level in the 450 nm wavelength band.

[3] = test system: HBV; experiment: Inhibition of intracellular HBV virus invasion, Southern blot analysis; type: cell-based
Procedure: as §1, §2
For the cell pellet obtained by the method of Experimental Example 4-1, Southern blot analysis for measurement of […] DNA was performed using Example 1 (LCA-Ile), Example 44 (LCA-Val), Example 52 (LCA-Tyr), Example 51 (LCA-Ser), Example 55 (LCA-Glu), Example 2 (UDCA-Ile), Example 3 (UDCA-Val), Example 25 (LCA-Val-Trp), Example 10 (DCA-Ile), Comparative Example 1 (LCA), and Comparative Example 2 (UDCA).
First, the cell pellets were pipetted with 100 µl of HEPES lysis buffer (10 mM HEPES, 100 mM NaCl, 1 mM EDTA, 1% NP-40), placed on ice for 20 minutes, and then centrifuged with a centrifuge under the conditions at 4°C and 13000 rpm. After transferring the supernatant only to the new microtube, 4.5 µl of nuclease buffer I (10 mM CaCl2, 12 mM MgCl2, DNase 10 units) was added to carry out a reaction at 37°C for 2 hours, and 40 µl of 26% PEG solution was added, followed by a reaction on ice for 1 hour. After centrifuging with the centrifuge at 4°C and 13000 rpm for 30 minutes, and the supernatant was removed cleanly. After releasing the pellets with 100 µl of nuclease buffer II (10 mM Tris, 8 mM CaCl2, 6mM MgCl2), 287.5 µl of 0.5% SDS buffer (25 mM Tris, 10 mM EDTA, 0.5% SDS, 100 mM NaCl) was added, and 12.5 µl of 20 mg/ml proteinase K was added, followed by a reaction at 37°C for 2 hours. 400 µl of phenol-chloroform-isoamyl alcohol was added, centrifugation was performed at room temperature at 13000 rpm after voltexing, the supernatant was transferred to a new tube, 40 µl of 3 M NaOAc was added, and 800 µl of 100% ethanol was added for inverting, followed by a reaction overnight at -20°C. After performing centrifugation at 4°C and 13000 rpm for 30 minutes, 800 µl of 70% ethanol was added and mixed to the pellet obtained by removing the supernatant, centrifugation was performed at 4°C and 13000 rpm for 10 minutes, and then the supernatant was discarded. The ethanol was dried for 5 minutes to leave only the HBV DNA pellets, and then the pellets were dissolved again in 15 µl of TE buffer (10 mM Tris, 1 mM EDTA). HBV DNA samples were loaded in 1% agarose gel, and electrophoresis was performed. It was then immersed in denature buffer (0.25 N NaOH, 1 M NaCl) for 30 minutes to denature dsDNA of HBV into ssDNA. The DNA in the gel was transferred to a Nylon membrane using a transfer buffer (0.4 M NaOH), the membrane was soaked with a 2X SSC buffer (sigma, cat# 85639) for neutralization, followed by drying in air. The membrane was immersed in a church buffer (10% BSA, 0.5 M EDTA, 1 M NaPi, 20% SDS), and the radioisotopes were hybridized using a Mega prime kit (GE healthcare, RPN1607). After washing three times with washing buffer (2X SSC, 0.1% SDS), measurement was performed using radioisotope measurement equipment, and a relative replication rate (%) to the negative control group (Mock) was calculated and shown.

## CC[C@@H](C)[C@H](NC(=O)CC[C@@H](C)[C@H]1CC[C@H]2[C@@H]3CC[C@@H]4C[C@H](O)CC[C@]4(C)[C@H]3CC[C@]12C)C(=O)O [Example 1, (2S,3R)-2-((R)-4-((3R,5R,8R,9S,10S,13R,14S,17R)-3-hydroxy-10,13-dimethyl-hexadecahydro-1H-cyclopenta[a]phenanthren-17-yl)pentanamido)-3-methylpentanoic acid]
[1]
  cytotoxicity: barely observed
[2]
  HBeAg absorbance level compared with Comparative Example 1 (LCA) and Comparative Example 2 (UDCA): lower
  HBeAg absorbance level compared with the negative control group (Mock): relatively lower
[3]; 20 µM, HepG2-NTCP cell line, HBV 3000 Geq/cell
  amount of HBeAg DNA detected compared to the negative control group (Mock): relatively less amount
[3]; Hepatitis B virus, read-out: relative replication rate of quantified HBeAg DNA to the negative control group (Mock), 20 µM, HepG2-NTCP cell line, HBV 3000 Geq/cell
  activity at 20 µM: < 80%
